Assay results: patent publication EP4603105A1, “PHARMACEUTICAL COMPOSITION CONTAINING CYCLIC COMPOUND HAVING SELECTIVE KRAS INHIBITORY EFFECT AGAINST HRAS AND NRAS” (CHUGAI SEIYAKU KABUSHIKI KAISHA, priority 2022, dated 2024)
Where a SMILES comes first, the peptide text is derived from it. Bridges are numbered along the chain shown (N, C = ends). [ ]: non-standard residue; d: D form. The star is where a group is joined. hPhe(3-Cl-4-CF3) = N[C@@H](CCc1ccc(C(F)(F)F)c(Cl)c1)C(=O)O; NPrPhe(4-CF3) = CCCN[C@@H](Cc1ccc(C(F)(F)F)cc1)C(=O)O; NPrPhe(4-Me) = CCCN[C@@H](Cc1ccc(C)cc1)C(=O)O; NMeGly(cPent) = CN[C@H](C(=O)O)C1CCCC1; Pro(4,4-F2) = O=C(O)[C@@H]1CC(F)(F)CN1; NMeNva(3-Et) = CCC(CC)[C@H](NC)C(=O)O; NMeD = CN[C@@H](CC(=O)O)C(=O)O; NMeL = CN[C@@H](CC(C)C)C(=O)O; Morpholide = C1CN(*)CCO1; NMeA = CN[C@@H](C)C(=O)O; Ac5c = NC1(C(=O)O)CCCC1; Aze = O=C(O)[C@@H]1CCN1; Ac4c = NC1(C(=O)O)CCC1; NEtG = CCNCC(=O)O; Sar = CNCC(=O)O

Columns and labels:
[1] = system: human lung cancer strain NCI-H441; format: cell-based
Summary of the method: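 Proliferation was scored by […] measured after the reagent was added to cultures kept at 37°C in 5% carbon dioxide.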

[2] = target: GDP-bound NRAS wild-type protein (Homo sapiens, UniProt P01111); assay: Binding to NRAS by surface plasmon resonance (SPR), KD and KD ratio to KRAS
Sequence of GDP-bound NRAS wild-type protein (P01111 whole entry): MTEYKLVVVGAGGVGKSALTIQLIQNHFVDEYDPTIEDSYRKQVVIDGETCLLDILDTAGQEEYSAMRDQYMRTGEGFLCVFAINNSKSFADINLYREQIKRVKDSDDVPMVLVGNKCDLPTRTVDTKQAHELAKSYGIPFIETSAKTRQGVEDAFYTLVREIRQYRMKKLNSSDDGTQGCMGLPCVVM
Summary of the method: (§1)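 Single-cycle kinetics on GDP-loaded biotin-Avi RAS captured to ~100–300 RU; 75 s ascending injections, 100 µL/min, 30°C. HBS pH 7.4 + 10 mM MgCl2/10 µM GDP/4% DMSO. 1:1 fit, KD.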

HRAS wild-type protein = HRAS wild-type protein (Homo sapiens, UniProt P01112); assay: Binding to HRAS by surface plasmon resonance (SPR), KD and KD ratio to KRAS
Sequence of HRAS wild-type protein (P01112 whole entry): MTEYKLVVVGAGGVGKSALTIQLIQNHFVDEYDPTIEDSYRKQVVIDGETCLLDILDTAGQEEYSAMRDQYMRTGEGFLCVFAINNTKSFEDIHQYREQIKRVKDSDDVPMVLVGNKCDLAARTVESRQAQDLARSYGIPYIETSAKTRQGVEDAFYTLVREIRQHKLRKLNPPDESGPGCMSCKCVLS
Summary of the method: as §1

[3] = ratio of KD value for GDP-bound NRAS wild-type protein to KD value for KRAS (SPR)
[4] = ratio of KD value for HRAS wild-type protein to KD value for KRAS (SPR)
[5] = ratio of the KD value with respect to GDP-bound NRAS wild-type protein to the KD value with respect to KRAS
[6] = ratio of the KD value with respect to HRAS wild-type protein to the KD value with respect to KRAS
[7] = ratio of KD for GDP-bound NRAS wild-type protein to KD for KRAS
[8] = ratio of KD for HRAS wild-type protein to KD for KRAS

IC50 [1] | SMILES | NRAS /KRAS [2, 3] | HRAS /KRAS (HRAS wild-type protein; [4]) | NRAS /KRAS [2, 5] | HRAS /KRAS (HRAS wild-type protein; [6]) | NRAS /KRAS [2, 7] | HRAS /KRAS (HRAS wild-type protein; [8])
3.6 nM | CCCN(C)C(=O)[C@@H]1CC(=O)N(C)[C@@H](CC(F)F)C(=O)N[C@@H]([C@@H](C)CC)C(=O)N(C)CC(=O)N(C)[C@H]2C/C=C\CCN(C2=O)[C@@H](Cc2ccc(C(F)(F)F)cc2)C(=O)N(C)CC(=O)N[C@@H](CCc2cc(F)c(C(F)(F)F)c(F)c2)C(=O)N2C[C@H](OCC)C[C@H]2C(=O)NC2(CCC2)C(=O)N(C)[C@@H](C2CCCC2)C(=O)N1C [PP1700] | A (a compound having 10 or more and less than 20 is denoted as A) | A (a compound having 10 or more and less than 20 is denoted as A) |  |  |  | 
0.9 nM | CCCN1C(=O)[C@@H]2CCN2C(=O)CN(C)C(=O)[C@H]([C@@H](C)CC)NC(=O)[C@H](CC(C)C)N(C)C(=O)C[C@@H](C(=O)N(C)C)N(C)C(=O)[C@H](C2CCCC2)N(C)C(=O)C2(CCC2)NC(=O)[C@@H]2CC(F)(F)CN2C(=O)[C@H](CCc2ccc(C(F)(F)F)c(Cl)c2)NC(=O)CN(C)C(=O)[C@@H]1Cc1ccc(C(F)(F)F)cc1 [PP0443] ([NMeL]I[Sar][Aze][NPrPhe(4-CF3)][Sar][hPhe(3-Cl-4-CF3)][Pro(4,4-F2)][Ac4c][NMeGly(cPent)][NMeD]-NMe2; lactam N-11) |  |  | C (A compound having a KD ratio of 0.1 or more and less than 3 is denoted as C) | C (A compound having a KD ratio of 0.1 or more and less than 3 is denoted as C) |  | 
399 nM | CC[C@H](C)[C@@H]1NC(=O)[C@H](CC(C)C)N(C)C(=O)C[C@@H](C(=O)N2CCOCC2)N(C)C(=O)[C@H](C2CCCC2)N(C)C(=O)C2(CC2)NC(=O)[C@@H]2CCCN2C(=O)[C@H](CCc2cc(F)c(C(F)(F)F)c(F)c2)NC(=O)CN(C)C(=O)[C@H](Cc2ccc(C(F)(F)F)cc2)N2CCCCC[C@@H](C2=O)N(C)C(=O)CN(C)C1=O [PP0496] |  |  | B (a compound having 3 or more and less than 10 is denoted as B) | B (a compound having 3 or more and less than 10 is denoted as B) |  | 
2.7 nM | CC[C@H](C)[C@@H]1NC(=O)[C@H](CC(C)C)N(C)C(=O)C[C@@H](C(=O)N(C)C)N(C)C(=O)[C@H](C2CCCC2)N(C)C(=O)C2(CC(C)(C)C2)NC(=O)[C@@H]2CC(F)(F)CN2C(=O)[C@H](CCc2cc(F)c(C(F)(F)F)c(F)c2)NC(=O)CN(C)C(=O)[C@H](Cc2ccc(C(F)(F)F)cc2)N2CC/C=C\C[C@@H](C2=O)N(C)C(=O)CN(C)C1=O [PP1715] | AA (a compound having 20 or more is denoted as AA) | A (a compound having 10 or more and less than 20 is denoted as A) |  |  |  | 
216 nM | CC[C@H](C)[C@@H]1NC(=O)[C@H](CC(C)C)N(C)C(=O)C[C@@H](C(=O)N2CCOCC2)N(C)C(=O)[C@H](C2CCCC2)N(C)C(=O)C2(CCCC2)NC(=O)[C@@H]2CCCN2C(=O)[C@H](CCc2ccc(C(F)(F)F)c(Cl)c2)NC(=O)CN(C)C(=O)[C@H](Cc2ccc(OC(F)(F)F)cc2)N2CCCCC[C@@H](C2=O)N(C)C(=O)CN(C)C1=O [PP0615] |  |  | B (a compound having 3 or more and less than 10 is denoted as B) | B (a compound having 3 or more and less than 10 is denoted as B) |  | 
8 nM | CCCN1C(=O)[C@@H]2CCN2C(=O)[C@H](C)N(C)C(=O)[C@H]([C@@H](C)CC)NC(=O)[C@H](CC(C)C)N(C)C(=O)C[C@@H](C(=O)N(C)C)N(C)C(=O)[C@H](C(CC)CC)N(C)C(=O)C2(CCC2)NC(=O)[C@@H]2CCCN2C(=O)[C@H](CCc2ccc(C(F)(F)F)c(Cl)c2)NC(=O)CN(C)C(=O)[C@@H]1Cc1ccc(C(F)(F)F)cc1 [PP1961] ([NMeL]I[NMeA][Aze][NPrPhe(4-CF3)][Sar][hPhe(3-Cl-4-CF3)]P[Ac4c][NMeNva(3-Et)][NMeD]-NMe2; lactam N-11) |  |  | C (A compound having a KD ratio of 0.1 or more and less than 3 is denoted as C) | C (A compound having a KD ratio of 0.1 or more and less than 3 is denoted as C) |  | 
55.2 nM | CCC[C@H]1C(=O)N[C@@H]([C@@H](C)CC)C(=O)N(C2CC2)CC(=O)N(C)[C@H]2C/C=C\CCN(C2=O)[C@@H](Cc2ccc(C(F)(F)F)cc2)C(=O)N(C)CC(=O)N[C@@H](CCc2ccc(Cl)c(Cl)c2)C(=O)N2C[C@H](OCC)C[C@H]2C(=O)NC2(CC(C)(C)C2)C(=O)N(C)[C@@H](CC2CC2)C(=O)N(C)[C@H](C(=O)N(C)C)CC(=O)N1C [PP2817] |  |  |  |  | A (a compound having 10 or more and less than 20 is denoted as A) | A (a compound having 10 or more and less than 20 is denoted as A)
4.3 nM | C#CCN1CC(=O)N(C)[C@H]2C/C=C\CCN(C2=O)[C@@H](Cc2ccc(C(F)(F)F)cc2)C(=O)N(C)CC(=O)N[C@@H](CCc2cc(F)c(C(F)(F)F)c(F)c2)C(=O)N2C[C@H](OCC)C[C@H]2C(=O)NC2(CC(C)(C)C2)C(=O)N(C)[C@@H](C2CCCC2)C(=O)N(C)[C@H](C(=O)N(C)C)CC(=O)N(C)[C@@H](CCC)C(=O)N[C@@H]([C@@H](C)CC)C1=O [PP2103] |  |  | A (a compound having 10 or more and less than 20 is denoted as A) | A (a compound having 10 or more and less than 20 is denoted as A) |  | 
952 nM | CCO[C@@H]1C[C@H]2C(=O)NC3(CCC3)C(=O)N(C)[C@@H](C3CCCC3)C(=O)N(CCc3ccccc3)[C@H](C(=O)N(C)C)CC(=O)N(C)[C@@H](CC)C(=O)N[C@@H]([C@@H](C)CC)C(=O)N(C)CC(=O)N(C)[C@H]3CCCCCN(C3=O)[C@@H](Cc3ccc(C(F)(F)F)cc3)C(=O)N(C)CC(=O)N[C@@H](CCc3cc(F)c(C(F)(F)F)c(F)c3)C(=O)N2C1 [PP0637] |  |  | B (a compound having 3 or more and less than 10 is denoted as B) | B (a compound having 3 or more and less than 10 is denoted as B) |  | 
25.8 nM | CCCN1C(=O)[C@@H]2CCN2C(=O)[C@H](C)N(C)C(=O)[C@H]([C@@H](C)CC)NC(=O)[C@H](CC(C)C)N(C)C(=O)C[C@@H](C(=O)N2CCOCC2)N(C)C(=O)[C@H](C2CCCC2)N(C)C(=O)C2(CCCC2)NC(=O)[C@@H]2CCCN2C(=O)[C@H](CCc2ccc(C(F)(F)F)c(Cl)c2)NC(=O)CN(CC)C(=O)[C@@H]1Cc1ccc(C)cc1 [PP0058] ([NMeL]I[NMeA][Aze][NPrPhe(4-Me)][NEtG][hPhe(3-Cl-4-CF3)]P[Ac5c][NMeGly(cPent)][NMeD]-Morpholide; lactam N-11) |  |  |  |  | C (A compound having a KD ratio of 0.1 or more and less than 3 is denoted as C) | C (A compound having a KD ratio of 0.1 or more and less than 3 is denoted as C)
19.5 nM | CCO[C@@H]1C[C@H]2C(=O)NC3(CCC3)C(=O)N(C)[C@@H](C3CCCC3)C(=O)N(C)[C@H](C(=O)N(C)C)CC(=O)N(C)[C@@H](CC)C(=O)N[C@@H]([C@@H](C)CC)C(=O)NCC(=O)N(C)[C@H]3C/C=C\CCN(C3=O)[C@@H](Cc3ccc(C(F)(F)F)cc3)C(=O)N(C)CC(=O)N[C@@H](CCc3cc(F)c(C(F)(F)F)c(F)c3)C(=O)N2C1 [PP0983] |  |  |  |  | A (a compound having 10 or more and less than 20 is denoted as A) | A (a compound having 10 or more and less than 20 is denoted as A)
7.9 nM | CCO[C@@H]1C[C@H]2C(=O)NC3(CC(C)(C)C3)C(=O)N(C)[C@@H](C(CC)CC)C(=O)N(C)[C@H](C(=O)N(C)C)CC(=O)N(C)[C@H]3CCC/C=C/c4ccc(cc4)C[C@@H](C(=O)N(C)CC(=O)N[C@@H](CCc4ccc(Cl)c(Cl)c4)C(=O)N2C1)N1CC/C=C\C[C@@H](C1=O)N(C)C(=O)CN(C)C(=O)[C@H]([C@@H](C)CC)NC3=O [PP2580] |  |  |  |  | AA (a compound having 20 or more is denoted as AA) | A (a compound having 10 or more and less than 20 is denoted as A)
